Data published in patent US6093714A, “Tricyclic benzazepine compounds” (priority 1995, dated 2000).
Where a name gives a salt, the structure may show the parent alone. Read-outs that look alike come from different tables or passages of the source.

Assays:
[1] = system: intraperitoneal cells; assay: Histamine release reaction inhibition test (rat intraperitoneal cells, DNP-As antigen); format: cell-based, Wistar male rat; settings: 10^-5 to 10^-10 M test compound, DNP-As stimulated intraperitoneal cells, 10^5 cells/ml, read-out: IC50 (dose of the test compound required for inhibiting the histamine release reaction by 50%)
Procedure: Histamine release reaction inhibition test
(1) Preparation of antiserum
Rat anti-dinitrophenylated ascaris protein (hereinafter referred to as "DNP-As") serum was prepared according to the method established by Tada et al. (Tada, T. and Okumura, K., J. Immun. 106(4), 1971). Specifically, 1010 organisms of Bordetella pertussis and 1 mg of DNP-As were intramuscularly administered to the foot pad of the limbs of Brown norway male rats weighing 200 g, and, five days after the administration, 0.5 mg of DNP-As was intramuscularly administered to the back. Three days after that, blood was collected to prepare an antiserum. The titer of the antiserum was determined by using a 48-hr passive cutaneous anaphylaxis reaction using a rat and found to be 1:1000 to 1:2000.
(2) Induction of histamine release reaction and release reaction inhibitory activity
The above serum was diluted four times with physiological brine, and 1 ml of the diluted serum was intraperitoneally administered to a Wistar male rat. Two days after the administration, the abdominal cavity was washed with phosphate buffer, and intraperitoneal cells were collected. The cells were adjusted to 10^5 cells/ml and stimulated with 1 pg/ml DNP-As, and the amount of the histamine released on the supernatant was measured by the method established by Shore et al (Shore, P. A., Burkhalter, A. H. and Chon Jr. V. H. J. Pharm. Exp. Ther., 127 , 182-186 (1959)).
The amount of the released histamine treated with 10^-5 to 10^-10 M test compound was compared with that of non-treated group. The dose of the test compound required for inhibiting the histamine release reaction by 50% (IC50) was calculated based on the percentage inhibition. IC50 of sodium cromoglicate was used as a control.

[2] = system: allergic foot-pad edema reaction; assay: Immediate and late phase allergic response inhibition test (allergic foot-pad edema reaction); format: in vivo, Wister male rats; settings: Rattus norvegicus, po, 20 mg/kg orally, 10 min before induction
Procedure: Immediate and late phase allergic response inhibition test
Wister male rats weighing of 200 g were provided. 1010 organisms of Bordetella pertussis and 1 mg of dinitrophenylated ovalbumin (hereinafter abbreviated to "DNP-OA") were intramuscularly administered into the foot pad of the limbs of the rats except for the right hind leg. Further, ten days after the administration, 5 pg/site DNP-OA was subcutaneously administered to the right hind leg to induce allergic foot-pad edema reaction. The inhibitory activity of the test compounds was determined in such a manner that the volume of edema 30 min after the induction of the allergic reaction was regarded as an immediate phase allergic response and the volume of edema 8 hr after the induction of the allergic reaction was regarded as a late phase allergic response. Each test compound was dissolved or suspended in a 0.25% Tween 80 solution, and the solution or suspension was orally administered at a dose of 20 mg/kg 10 min before the induction of the allergic reaction.
Only the 0.25% Tween 80 solution was administered to the control group of rats not treated with any test compound, and 100 mg/kg sodium cromoglicate was subcutaneously or orally administered to the positive control group of rats.
The percentage inhibition of the allergic foot-pad edema reaction was determined by the following equation.
Percentage inhibition of allergic foot-pad edema reaction=(A-B)/A×100
wherein A: average edema volume for the non-treated control group of rats; and
B: average edema volume for the group of rats with the test compound administered.

[3] = 0.5 h, edema 30 min after induction, read-out: Inhibition (%) Immediate phase response
[4] = edema 8 hr after induction, read-out: Inhibition (%) Late phase response

| SMILES | IC50 [1] | inhibition in vivo at 20 mg/kg [2, 3] | inhibition in vivo at 20 mg/kg [2, 4] |
| --- | --- | --- | --- |
| O=C(/C=C/c1ccc2c(=O)c3[nH]nnc3c(=O)[nH]c2c1)Nc1ccccc1C(=O)O [Example 1, 7-(2-(N-(2-Carboxyphenyl)carbamoyl)-(E)-ethenyl)-4(5H),10-dioxo-1H-1,2,3-triazolo[4,5-c][1]benzazepine] | 6 nM | – | – |
| O=C(CCc1ccc2c(=O)c3[nH]nnc3c(=O)[nH]c2c1)NCc1ccccn1 [Example 2, 4(5H),10-dioxo-7-(2-(N-(2-pyridyl)methyl)carbamoyl)ethyl-1H-1,2,3-triazolo[4,5-c][1]benzazepine] | 4.4 nM | 57% | 43% |
| CN(Cc1ccccn1)C(=O)CCc1ccc2c(=O)c3[nH]nnc3c(=O)[nH]c2c1 [Example 3, 4(5H),10-dioxo-7-(2-(N-methyl-N-(2-pyridyl)methyl)carbamoyl)ethyl-1H-1,2,3-triazolo[4,5-c][1]benzazepine] | 4.6 nM | 44% | 14% |
| CCN(Cc1ccccn1)C(=O)CCc1ccc2c(=O)c3[nH]nnc3c(=O)[nH]c2c1 [Example 4, 7-(2-(N-Ethyl-N-(2-pyridyl)methyl)carbamoyl)ethyl-4(5H),10-dioxo-1H-1,2,3-triazolo[4,5-c][1]benzazepine] | 13 nM | 48% | 21% |
| O=C(CCc1ccc2c(=O)c3[nH]nnc3c(=O)[nH]c2c1)N(Cc1ccccn1)Cc1ccccn1 [Example 5, 4(5H ),10-Dioxo-7-(2-(N,N-bis(2-pyridylmethyl))carbamoyl)ethyl-1H-1,2,3-triazolo[4,5-c][1]benzazepine] | 2.9 nM | 40% | 43% |
| O=C(CCc1ccc2c(=O)c3[nH]nnc3c(=O)[nH]c2c1)N1CCc2ccccc2C1 [Example 6, 7-(2-(1,2,3,4-Tetrahydro-2-isoquinolyl)carbonylethyl)-4(5H),10-dioxo-1H-1,2,3-triazolo[4,5-c][1]benzazepine] | 4.5 nM | 19% | 29% |
| COC(=O)c1cc2c(s1)CCN(C(=O)CCc1ccc3c(=O)c4[nH]nnc4c(=O)[nH]c3c1)C2 [Example 7, 7-(2-(2-Methoxycarbonyl-4,5,6,7-tetrahydrothieno[3,2-c]pyridin-5-yl)carbonylethyl)-4(5H),10-dioxo-1H-1,2,3-triazolo[4,5-c][1]benzazepine] | 12 nM | 20% | -3% |
| CN1CCN(C(=O)CCc2ccc3c(=O)c4[nH]nnc4c(=O)[nH]c3c2)CC1 [Example 8, 7-(2-(4-Methylpiperazin-1-yl)carbonylethyl)-4(5H),10-dioxo-1H-1,2,3-triazolo[4,5-c][1]benzazepine] | 9.5 nM | 42% | 20% |
| O=C(CCc1ccc2c(=O)c3[nH]nnc3c(=O)[nH]c2c1)Nc1ccncc1 [Example 9, 7-(2-(N-(4-Pyridylamino))carbamoyl)ethyl-4(5H),10-dioxo-1H-1,2,3-triazolo[4,5-c][1]benzazepine] | 3.9 nM | 30% | 33% |
| O=c1[nH]c2cc(/C=C/c3ccncc3)ccc2c(=O)c2[nH]nnc12 [Example 10, 4(5H),10-Dioxo-7-(2-(4-pyridyl)-(E)-ethenyl)-1H-1,2,3-triazolo[4,5-c][1]benzazepine trifluoroacetate] | 2.4 nM | 44% | 59% |
| O=c1[nH]c2cc(/C=C/c3ccccn3)ccc2c(=O)c2[nH]nnc12 [Example 11, 4(5H),10-Dioxo-7-(2-(2-pyridyl)-(E)-ethenyl)-1H-1,2,3-triazolo[4,5-c][1]benzazepine trifluoroacetate] | 1.8 nM | – | – |
| O=c1[nH]c2cc(OCCCN3CCOCC3)ccc2c(=O)c2[nH]nnc12 [Example 12, 7-(3-Morpholinopropoxy)-4(5H),10-dioxo-1H-1,2,3-triazolo[4,5-c][1]benzazepine trifluoroacetate] | 3.6 nM | 46% | 42% |
| CN1CCN(CCCOc2ccc3c(=O)c4[nH]nnc4c(=O)[nH]c3c2)CC1 [Example 13, 7-(3-(4-Methyl-1-piperazino)propoxy)-4(5H),10-dioxo-1H-1,2,3-triazolo[4,5-c][1]benzazepine ditrifluoroacetate] | 11 nM | 28% | 28% |
| O=c1[nH]c2cc(OCCCN3CCC(Cc4ccccc4)CC3)ccc2c(=O)c2[nH]nnc12 [Example 14, 7-(3-(4-Benzylpiperidino)propoxy)-4(5H),10-dioxo-1H-1,2,3-triazolo[4,5-c][1]benzazepine trifluoroacetate] | 11 nM | 32% | 15% |
| CCN(Cc1ccccn1)C(=O)COc1ccc2c(=O)c3[nH]nnc3c(=O)[nH]c2c1 [Example 15, 7-(N-Ethyl-N-(2-pyridylmethyl)carbamoylmethyloxy)-4(5H),10-dioxo-1H-1,2,3-triazolo[4,5-c][1]benzazepine trifluoroacetate] | 9.9 nM | 34% | 25% |
| O=C(COc1ccc2c(=O)c3[nH]nnc3c(=O)[nH]c2c1)NCc1ccccn1 [Example 16, 4(5H ),10-Dioxo-7-(N-(2-pyridylmethyl)carbamoylmethyloxy)-1H-1,2,3-triazolo[4,5-c][1]benzazepine trifluoroacetate] | 2.8 nM | 48% | 35% |
| Cc1ccc(C(=O)Oc2ccc3c(=O)c4[nH]nnc4c(=O)[nH]c3c2)cc1 [Example 17, 4(5H),10-Dioxo-7-(4-toluoyloxy)-1H-1,2,3-triazolo[4,5-c][1]benzazepine] | 4.1 nM | 44% | 24% |
| O=C(COc1ccc2c(=O)c3[nH]nnc3c(=O)[nH]c2c1)N(Cc1ccccn1)Cc1ccccn1 [Example 18, 7-(N,N-Bis(2-pyridylmethyl)carbamoylmethyloxy)-4(5H),10-dioxo-1H-1,2,3-triazolo[4,5-c][1]benzazepine ditrifluoroacetate] | 6.2 nM | 40% | 5% |
| CC(=O)Nc1ccc2c(=O)c3[nH]nnc3c(=O)[nH]c2c1 [Example 21, 7-Acetylamino-4(5H),10-dioxo-1H-1,2,3-triazolo[4,5-c][1]benzazepine] | 4.6 nM | 43% | 26% |
| O=C(Nc1ccc2c(=O)c3[nH]nnc3c(=O)[nH]c2c1)c1ccc(OCCCCc2ccccc2)cc1 [Example 22, 4(5H),10-Dioxo-7-(4-phenylbutoxybenzoylamino)-1H-1,2,3-triazolo[4,5-c][1]benzazepine] | 8.1 nM | 40% | 41% |
| COc1ccc(C(=O)COc2cc3c(=O)c4[nH]nnc4c(=O)[nH]c3cc2C)cc1 [Example 27, 8-(4-Methoxyphenacyloxy)-7-methyl-4(5H),10-dioxo-1H-1,2,3-triazolo[4,5-c][1]benzazepine] | 10 nM | – | – |
| Cc1cc(C)c2[nH]c(=O)c3nn[nH]c3c(=O)c2c1 [Example 29, 6,8-Dimethyl-4(5H),10-dioxo-1H-1,2,3-triazolo[4,5-c][1]benzazepine] | 31 nM | – | – |
| O=c1[nH]c2cc(C=Cc3cccnc3)ccc2c(=O)c2[nH]nnc12 [Example 31, 4(5H),10-Dioxo-7-(2-(3-pyridyl)ethenyl)-1H-1,2,3-triazolo[4,5-c][1]benzazepine trifluoroacetate (E:Z=1:2)] | 2 nM | – | – |
| O=c1[nH]c2cc(/C=C/c3ccc4ccccc4n3)ccc2c(=O)c2[nH]nnc12 [Example 33, 4(5H),10-Dioxo-7-(2-(2-quinolyl)-(E)-ethenyl)-1H-1,2,3-triazolo[4,5-c][1]benzazepine trifluoroacetate] | 0.4 nM | – | – |
